Active and inactive are the calls of the source.
Tests used:
[1] = molecular target: DNA dC->dU-editing enzyme APOBEC-3A (Homo sapiens, UniProt P31941); test: APOBEC3A DNA deaminase inhibitors, dose response, biochemical (AID 504722); type: functional
[2] = molecular target: DNA dC->dU-editing enzyme APOBEC-3G (Homo sapiens, UniProt Q9HC16); test: Dose Response confirmation of small molecule APOBEC3G DNA Deaminase Inhibitors via a fluorescence-based single-stranded DNA deaminase assay. [Related pubchem assays (depositor defined):AID493012, AID493028]; type: functional
DNA dC->dU-editing enzyme APOBEC-3G, sequence (Q9HC16 whole entry): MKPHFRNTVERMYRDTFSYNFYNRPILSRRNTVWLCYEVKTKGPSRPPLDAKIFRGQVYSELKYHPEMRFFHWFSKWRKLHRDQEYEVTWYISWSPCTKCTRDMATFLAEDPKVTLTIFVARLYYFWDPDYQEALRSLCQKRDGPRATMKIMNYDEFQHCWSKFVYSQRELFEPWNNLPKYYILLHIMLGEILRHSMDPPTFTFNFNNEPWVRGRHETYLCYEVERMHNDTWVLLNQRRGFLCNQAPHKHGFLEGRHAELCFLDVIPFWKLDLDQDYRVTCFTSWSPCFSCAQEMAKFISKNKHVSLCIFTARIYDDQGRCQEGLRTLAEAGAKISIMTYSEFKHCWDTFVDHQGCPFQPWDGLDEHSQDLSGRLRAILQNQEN

Cytochrome P450 2C19 = Cytochrome P450 2C19 (Homo sapiens, UniProt P33261); test: Cytochrome panel assay with activity outcomes. Panel member name: p450-cyp2c19 Compounds with AC50 equal or less than 10 uM are considered active; type: functional
Cytochrome P450 2C19, sequence (P33261 whole entry): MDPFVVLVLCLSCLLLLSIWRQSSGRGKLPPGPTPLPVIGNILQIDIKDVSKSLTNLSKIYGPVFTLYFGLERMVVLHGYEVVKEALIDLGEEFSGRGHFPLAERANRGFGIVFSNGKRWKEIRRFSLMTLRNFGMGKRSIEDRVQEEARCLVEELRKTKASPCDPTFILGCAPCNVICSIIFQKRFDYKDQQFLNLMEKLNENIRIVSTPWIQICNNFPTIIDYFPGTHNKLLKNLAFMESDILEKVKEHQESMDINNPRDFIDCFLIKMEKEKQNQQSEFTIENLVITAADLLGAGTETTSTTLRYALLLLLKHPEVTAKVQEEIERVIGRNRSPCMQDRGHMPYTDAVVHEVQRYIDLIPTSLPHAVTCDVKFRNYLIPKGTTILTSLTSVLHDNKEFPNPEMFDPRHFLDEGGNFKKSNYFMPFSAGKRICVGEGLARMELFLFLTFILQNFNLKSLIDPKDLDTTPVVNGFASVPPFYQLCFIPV

[3] = NIH-3T3 fibroblast cytotoxicity, dose response, cytotoxicity control, cell-based, fluorescence, Alamar Blue, secondary assay (AID 2327); type: functional;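 note: NIH-3T3 mouse fibroblasts cultured with fluconazole at 8 µg/mL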
[4] = C. albicans growth with fluconazole, confirmation, fluorescence, retest (AID 2467); type: functional, cell-based
[5] = molecular target: T1, Serine/threonine-protein phosphatase (Candida dubliniensis (strain CD36 / CBS 7987 / NCPF 3949 / NRRLY-17841) (Yeast), UniProt B9W6M3); test: calcineurin pathway inhibitors in yeast reporter, dose response, S. cerevisiae, CDRE-lacZ, luminescence, secondary (AID 2388); type: functional, cell-based;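 note: yeast reporter cells carrying a calcineurin-responsive lacZ construct stimulated with calcium chloride; luminescent beta-galactosidase reporter signal in whole cells rather than isolated phosphatase activity; potency for inhibition where a drop in reporter signal means calcineurin blockade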
T1 sequence (B9W6M3 whole entry): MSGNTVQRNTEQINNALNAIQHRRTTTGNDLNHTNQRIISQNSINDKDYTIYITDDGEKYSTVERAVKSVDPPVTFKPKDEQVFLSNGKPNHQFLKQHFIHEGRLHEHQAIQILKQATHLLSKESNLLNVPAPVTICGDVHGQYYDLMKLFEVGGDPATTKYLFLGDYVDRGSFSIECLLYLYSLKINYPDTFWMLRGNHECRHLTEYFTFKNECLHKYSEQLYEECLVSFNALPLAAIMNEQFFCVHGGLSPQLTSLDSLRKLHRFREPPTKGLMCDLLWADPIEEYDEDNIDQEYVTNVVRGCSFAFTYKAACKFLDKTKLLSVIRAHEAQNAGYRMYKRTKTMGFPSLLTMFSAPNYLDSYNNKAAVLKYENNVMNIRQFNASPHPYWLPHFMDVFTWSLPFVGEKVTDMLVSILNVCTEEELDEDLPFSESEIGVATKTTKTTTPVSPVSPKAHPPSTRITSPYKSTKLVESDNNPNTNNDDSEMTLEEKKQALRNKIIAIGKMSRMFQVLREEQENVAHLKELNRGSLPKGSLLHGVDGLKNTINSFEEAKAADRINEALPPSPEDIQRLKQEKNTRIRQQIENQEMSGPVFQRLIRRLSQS

[6] = molecular target: ATP-dependent molecular chaperone HSP82 (Candida albicans (strain WO-1) (Yeast), UniProt C4YTQ8); test: loss of DOC-induced GRE-beta-galactosidase reporter signal, dose response, Hsp90 inhibitor project, S. cerevisiae, luminescence (AID 2400); type: functional, cell-based;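 note: beta-galactosidase luminescence from glucocorticoid response element reporter as proxy for Hsp90 function; inhibitor potency where signal loss means Hsp90 inhibition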
ATP-dependent molecular chaperone HSP82, sequence (C4YTQ8 whole entry): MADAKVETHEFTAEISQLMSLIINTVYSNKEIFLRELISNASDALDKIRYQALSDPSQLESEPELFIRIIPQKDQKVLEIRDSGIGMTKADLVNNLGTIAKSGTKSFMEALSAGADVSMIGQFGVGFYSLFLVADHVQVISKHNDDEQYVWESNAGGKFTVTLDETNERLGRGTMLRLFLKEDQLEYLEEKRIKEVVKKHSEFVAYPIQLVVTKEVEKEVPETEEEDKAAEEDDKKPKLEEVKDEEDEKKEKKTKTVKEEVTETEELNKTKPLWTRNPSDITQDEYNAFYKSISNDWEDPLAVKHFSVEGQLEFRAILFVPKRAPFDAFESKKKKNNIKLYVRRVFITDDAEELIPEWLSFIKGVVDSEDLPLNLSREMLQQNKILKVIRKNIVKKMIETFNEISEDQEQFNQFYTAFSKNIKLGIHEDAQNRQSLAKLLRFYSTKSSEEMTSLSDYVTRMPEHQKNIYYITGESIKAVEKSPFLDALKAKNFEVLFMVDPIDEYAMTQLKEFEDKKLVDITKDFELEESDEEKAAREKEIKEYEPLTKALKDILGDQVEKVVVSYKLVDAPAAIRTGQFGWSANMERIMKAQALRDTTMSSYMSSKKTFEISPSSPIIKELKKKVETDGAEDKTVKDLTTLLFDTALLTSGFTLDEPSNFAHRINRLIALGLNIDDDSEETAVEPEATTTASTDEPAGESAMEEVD

[7] = molecular target: Alkaline phosphatase, placental type (Homo sapiens, UniProt P05187); test: PLAP enzyme inhibitors, confirmation, biochemical, luminescence (AID 1512); type: functional
Alkaline phosphatase, placental type, sequence (P05187 whole entry): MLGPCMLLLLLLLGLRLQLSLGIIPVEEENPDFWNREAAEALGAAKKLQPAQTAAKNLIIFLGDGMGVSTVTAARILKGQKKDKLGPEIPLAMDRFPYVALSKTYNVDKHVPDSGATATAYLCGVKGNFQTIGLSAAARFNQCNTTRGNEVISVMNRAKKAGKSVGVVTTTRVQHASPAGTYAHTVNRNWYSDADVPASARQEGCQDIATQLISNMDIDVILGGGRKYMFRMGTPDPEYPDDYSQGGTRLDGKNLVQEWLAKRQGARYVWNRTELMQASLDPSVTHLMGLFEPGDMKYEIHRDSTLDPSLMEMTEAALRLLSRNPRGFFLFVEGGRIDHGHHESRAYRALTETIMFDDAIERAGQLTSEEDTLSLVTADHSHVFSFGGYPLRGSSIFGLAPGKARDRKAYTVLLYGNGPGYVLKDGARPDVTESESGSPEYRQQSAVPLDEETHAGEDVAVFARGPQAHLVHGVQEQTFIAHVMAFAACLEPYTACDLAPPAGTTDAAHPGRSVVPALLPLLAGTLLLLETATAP

[8] = molecular target: T2, Alkaline phosphatase, tissue-nonspecific isozyme (Homo sapiens, UniProt P05186); test: human TNAP enzyme inhibitors, SAR follow-up, biochemical, luminescent, dose response (AID 1056)
T2 sequence (P05186 whole entry): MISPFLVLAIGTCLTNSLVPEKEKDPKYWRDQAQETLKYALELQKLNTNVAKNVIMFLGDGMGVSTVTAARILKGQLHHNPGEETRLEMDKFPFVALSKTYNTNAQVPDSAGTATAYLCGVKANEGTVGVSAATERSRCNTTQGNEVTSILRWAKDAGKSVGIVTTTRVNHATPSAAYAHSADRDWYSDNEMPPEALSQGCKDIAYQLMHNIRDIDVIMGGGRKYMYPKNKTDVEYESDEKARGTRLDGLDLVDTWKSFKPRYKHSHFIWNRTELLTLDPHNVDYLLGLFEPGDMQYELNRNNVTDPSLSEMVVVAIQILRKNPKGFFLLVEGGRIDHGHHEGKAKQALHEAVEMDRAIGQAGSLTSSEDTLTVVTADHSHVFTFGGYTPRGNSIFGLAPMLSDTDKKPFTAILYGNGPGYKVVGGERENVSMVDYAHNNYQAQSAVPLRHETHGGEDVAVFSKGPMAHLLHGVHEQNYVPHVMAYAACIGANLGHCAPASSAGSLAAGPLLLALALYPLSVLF

[9] = molecular target: Glyceraldehyde-3-phosphate dehydrogenase (Homo sapiens, UniProt P04406)
Glyceraldehyde-3-phosphate dehydrogenase, sequence (P04406 whole entry): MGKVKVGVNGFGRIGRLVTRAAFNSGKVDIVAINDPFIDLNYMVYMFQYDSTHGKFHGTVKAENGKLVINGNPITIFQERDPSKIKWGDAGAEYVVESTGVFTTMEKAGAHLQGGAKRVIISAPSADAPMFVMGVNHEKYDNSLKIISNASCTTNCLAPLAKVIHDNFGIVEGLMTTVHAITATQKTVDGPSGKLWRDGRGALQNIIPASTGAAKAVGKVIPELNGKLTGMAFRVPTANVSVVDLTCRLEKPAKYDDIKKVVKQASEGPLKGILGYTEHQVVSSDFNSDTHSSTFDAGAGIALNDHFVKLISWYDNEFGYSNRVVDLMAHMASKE

[10] = molecular target: G-protein coupled receptor 55 (Homo sapiens, UniProt Q9Y2T6); test: GPR55 antagonists blocking LPI-driven arrestin recruitment, primary screen, imaging, U2OS, beta-arrestin-GFP, LPI agonist (AID 2013); type: functional;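 note: antagonist potency measured as reduced agonist-driven arrestin aggregation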
G-protein coupled receptor 55, sequence (Q9Y2T6 whole entry): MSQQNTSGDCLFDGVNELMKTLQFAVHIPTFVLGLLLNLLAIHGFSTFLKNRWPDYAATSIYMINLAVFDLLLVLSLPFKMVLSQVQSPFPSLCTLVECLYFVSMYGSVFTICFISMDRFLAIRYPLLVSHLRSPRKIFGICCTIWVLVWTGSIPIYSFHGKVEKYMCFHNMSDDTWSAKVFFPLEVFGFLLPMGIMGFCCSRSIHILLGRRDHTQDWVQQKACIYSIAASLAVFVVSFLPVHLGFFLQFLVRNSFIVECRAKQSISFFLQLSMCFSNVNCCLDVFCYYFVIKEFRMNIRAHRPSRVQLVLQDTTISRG

Vero = Vero cell cytotoxicity, cytotoxicity control for flavivirus capping enzyme inhibitors (AID 588742); type: functional; conditions: Chlorocebus sabaeus
[11] = molecular target: T3, Ubiquitin-conjugating enzyme E2 N (Homo sapiens, UniProt P61088); type: functional
T3 sequence (P61088 whole entry): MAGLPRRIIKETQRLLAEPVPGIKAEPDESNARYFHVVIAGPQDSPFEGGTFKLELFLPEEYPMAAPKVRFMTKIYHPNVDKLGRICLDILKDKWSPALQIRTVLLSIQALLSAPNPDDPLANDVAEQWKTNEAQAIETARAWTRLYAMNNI

Bcl-2-related protein A1 = molecular target: T4, Bcl-2-related protein A1 (Mus musculus, UniProt Q07440); type: functional;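 note: confirmatory dose–response counterscreen on Bfl-1, used to check hits from a UBC13 polyubiquitin inhibitor campaign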
T4 sequence (Q07440 whole entry): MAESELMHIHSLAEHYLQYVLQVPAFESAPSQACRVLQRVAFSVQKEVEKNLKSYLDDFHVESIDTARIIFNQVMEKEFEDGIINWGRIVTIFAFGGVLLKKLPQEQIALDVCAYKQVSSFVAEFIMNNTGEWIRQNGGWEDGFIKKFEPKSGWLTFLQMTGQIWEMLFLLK

[12] = molecular target: T3, Ubiquitin-conjugating enzyme E2 N; type: functional; remark: listed apart in the source
ORF 73 = molecular target: T5, ORF 73 (Human herpesvirus 8, UniProt O40947); test: inhibitors of C-LANA binding to LBS DNA, dose response, biochemical, fluorescence polarization, cherry-picked samples (AID 504725); set-up: species or system Human gammaherpesvirus 8;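 note: fluorescence polarization of a labeled DNA duplex reporting LANA DNA binding; potency is for inhibitors that block LANA binding to the DNA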
T5 sequence (O40947 whole entry): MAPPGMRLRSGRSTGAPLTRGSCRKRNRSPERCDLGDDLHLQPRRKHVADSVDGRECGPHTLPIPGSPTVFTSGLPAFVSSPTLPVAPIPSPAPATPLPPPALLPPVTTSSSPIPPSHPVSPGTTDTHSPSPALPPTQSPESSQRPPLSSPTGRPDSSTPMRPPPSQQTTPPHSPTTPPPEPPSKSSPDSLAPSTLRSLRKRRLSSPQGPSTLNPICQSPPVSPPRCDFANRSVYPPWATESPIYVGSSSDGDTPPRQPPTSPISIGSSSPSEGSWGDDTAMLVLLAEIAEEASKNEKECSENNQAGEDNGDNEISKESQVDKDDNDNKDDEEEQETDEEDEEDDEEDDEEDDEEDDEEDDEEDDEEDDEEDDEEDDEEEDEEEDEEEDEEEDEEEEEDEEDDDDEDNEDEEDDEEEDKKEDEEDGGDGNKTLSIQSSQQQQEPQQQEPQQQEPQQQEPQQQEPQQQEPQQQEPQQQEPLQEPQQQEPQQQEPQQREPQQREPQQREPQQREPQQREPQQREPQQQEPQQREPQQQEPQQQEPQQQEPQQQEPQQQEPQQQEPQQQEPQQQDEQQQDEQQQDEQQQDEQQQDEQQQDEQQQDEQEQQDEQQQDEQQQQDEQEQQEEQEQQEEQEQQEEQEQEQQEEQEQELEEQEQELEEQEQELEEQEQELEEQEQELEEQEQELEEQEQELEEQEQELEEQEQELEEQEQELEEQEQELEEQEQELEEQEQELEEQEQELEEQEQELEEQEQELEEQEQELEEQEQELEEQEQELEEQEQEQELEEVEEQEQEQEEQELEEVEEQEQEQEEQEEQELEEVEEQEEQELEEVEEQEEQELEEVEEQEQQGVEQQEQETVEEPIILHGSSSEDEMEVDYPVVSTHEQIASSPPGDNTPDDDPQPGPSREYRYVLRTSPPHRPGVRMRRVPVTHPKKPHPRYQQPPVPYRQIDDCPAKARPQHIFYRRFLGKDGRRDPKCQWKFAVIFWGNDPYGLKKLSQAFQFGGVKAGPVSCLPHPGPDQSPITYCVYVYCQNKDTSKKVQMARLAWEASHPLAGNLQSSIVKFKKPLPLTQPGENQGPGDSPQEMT

[13] = ARNT/TACC3 interaction disruptors, potency, confirmation, biochemical, AlphaScreen, cherry-picked samples (AID 651703); type: functional, Homo sapiens;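 note: His-tagged ARNT PAS-B domain paired with GST-TACC3 E629A dimer coactivator fragment; potency of inhibitors that break up the complex and lower AlphaScreen signal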
[14] = molecular target: T6, Microphthalmia-associated transcription factor (Homo sapiens, UniProt O75030); test: TRPM1 promoter luciferase signal decrease, dose response, MITF inhibitor project, cell-based, SK-MEL-5, cherry-picked, set 3 (AID 493073); type: functional
T6 sequence (O75030 whole entry): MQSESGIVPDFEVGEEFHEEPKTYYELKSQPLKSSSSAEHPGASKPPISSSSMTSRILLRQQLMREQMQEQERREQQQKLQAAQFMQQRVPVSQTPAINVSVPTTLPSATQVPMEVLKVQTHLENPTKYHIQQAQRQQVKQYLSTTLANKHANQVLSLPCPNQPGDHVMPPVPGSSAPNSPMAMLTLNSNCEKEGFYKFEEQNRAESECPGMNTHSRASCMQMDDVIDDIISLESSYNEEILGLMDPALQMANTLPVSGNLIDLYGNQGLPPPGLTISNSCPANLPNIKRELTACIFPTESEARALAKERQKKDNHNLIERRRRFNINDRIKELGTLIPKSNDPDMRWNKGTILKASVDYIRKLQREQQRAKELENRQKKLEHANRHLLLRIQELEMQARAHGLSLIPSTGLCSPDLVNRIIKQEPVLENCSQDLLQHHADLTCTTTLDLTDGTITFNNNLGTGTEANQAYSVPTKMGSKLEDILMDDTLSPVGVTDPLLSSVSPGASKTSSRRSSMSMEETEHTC

[15] = inhibitors of intracellular T. cruzi replication, confirmation, NIH3T3 host cells, beta-gal luminescence (AID 2044); type: functional, cell-based;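 note: intracellular parasites grown in NIH/3T3 mouse fibroblasts as host cells; luminescent beta-galactosidase reporter signal from transgenic T. cruzi replicating inside host cells; inhibitors lower the luminescence signal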
[16] = cytotoxicity toward NIH3T3 fibroblasts, dose response, counter-screen, cell-based, ATP luminescence, mouse fibroblasts (AID 2010); type: functional;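 note: cells exposed to compound for about 90 hours before reading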
[17] = molecular target: Heat shock protein HSP 90-alpha (Homo sapiens, UniProt P07900); type: functional, organism-based
[18] = cytotoxicity in MIN6 insulinoma cells, dose response, cytotoxicity control, cell-based, mouse insulinoma (AID 2122); type: functional;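 note: confirmatory high-throughput counterscreen run to flag cytotoxic compounds; mouse MIN-6 beta cells carrying an insulin promoter eGFP reporter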
[19] = insulin promoter down-regulators in MIN6 cells, imaging, high-content screening, mouse beta cells (AID 1628); type: functional
INS1 = test: beta cell apoptosis inhibitors, cytokine rescue, dose response, luminescence, retest (AID 449756); type: functional, cell-based; conditions: Rattus norvegicus;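 note: cell death triggered by IL-1 beta plus TNF-alpha plus IFN-gamma mixture; protective hits raise ATP signal compared with cytokine alone wells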

DNA dC->dU-editing enzyme APOBEC-3A, sequence (P31941 whole entry): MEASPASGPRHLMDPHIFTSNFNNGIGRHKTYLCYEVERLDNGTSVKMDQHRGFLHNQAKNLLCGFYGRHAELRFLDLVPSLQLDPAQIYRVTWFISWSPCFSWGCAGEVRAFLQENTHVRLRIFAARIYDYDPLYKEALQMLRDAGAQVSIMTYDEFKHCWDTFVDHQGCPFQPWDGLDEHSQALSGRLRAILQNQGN

SMILES: CCOC(=O)c1cc(C)nc(S)c1C#N
- IC50 [1]: > 100 µM (inactive)
- IC50 [2]: 4.65 µM (active)

SMILES: Cc1[nH]c2nc(S)nc-2cc1Br
- IC50 [1]: > 100 µM (inactive)
- IC50 [2]: 1.98 µM (active)

SMILES: Cc1nnc(NC(=O)CSc2ncnc3c2cnn3-c2ccccc2C)s1
- AC50 (Cytochrome P450 2C19): inconclusive
- EC50 [3]: > 150 µM (inactive)
- EC50 [4]: 0.573 µM (active)
- EC50 [5]: > 180 µM (inactive)
- EC50 [6]: > 150 µM (inactive)

SMILES: Cc1ccc(-c2nc(N)nn2-c2ccccc2)cc1
- IC50 [7]: > 100 µM (inactive)
- IC50 [8]: > 100 µM (inactive)
- IC50 [9]: > 100 µM (not active)

SMILES: Cc1c(CCOC(=O)c2ccc(N3CCOCC3)c([N+](=O)[O-])c2)sc[n+]1CC#N
- IC50 [10]: 5.68 µM (active)

SMILES: Cc1nn(-c2ccccn2)c2nc(-c3cccs3)cc(C(=O)NCc3ccco3)c12
- CC50 (Vero): > 40 µM (active)

SMILES: O=C(COC(=O)c1cc(-c2ccc(Cl)s2)nc2ccccc12)NCc1ccco1
- CC50 (Vero): > 40 µM (active)

SMILES: CC1(C)Cc2c(sc(NC(=O)C(=O)N3CCCC3)c2C(N)=O)CO1
- IC50 [11]: 9.62 µM (active)
- IC50 (Bcl-2-related protein A1): > 20 µM (inactive)
- IC50 [12]: 1.47 µM (active)

SMILES: CC(C)Cn1c(-c2ccccc2F)n[nH]c1=S
- IC50 [1]: > 100 µM (inactive)
- IC50 [2]: 5.39 µM (active)

SMILES: Cc1noc(C)c1CN(C(=S)NC1CC2CCC1C2)c1ccccc1 (stereo unspecified)
- IC50 [10]: 3.74 µM (active)

SMILES: O=C(CSc1nnc(-c2ccncc2)[nH]1)c1ccc(O)c(O)c1
- IC50 [7]: 6.95 µM (active)
- IC50 [8]: 6.53 µM (active)

SMILES: CC1(C)Oc2ccc([N+](=O)[O-])cc2O1
- IC50 [7]: > 100 µM (inactive)
- IC50 [8]: > 100 µM (inactive)

SMILES: Cn1cncc1C#Cc1c(-c2ccc(S(C)(=O)=O)cc2)sc2ccccc12
- IC50 [11]: 8.84 µM (active)
- IC50 (Bcl-2-related protein A1): > 20 µM (inactive)
- IC50 [12]: 3.37 µM (active)

SMILES: C/C(=N/NC(=O)c1ccncc1)c1cc2ccc(O)cc2oc1=O
- AC50 (ORF 73): 0.544 µM (active)
- AC50 [13]: 116 µM (active)

SMILES: O=C(N/N=C/c1ccc(O)c2ncccc12)c1cccc(Br)c1
- AC50 [14]: 7.28 µM (active)
- EC50 [15]: 1.66 µM (active)
- EC50 [3]: > 160 µM (inactive)
- EC50 [16]: 5.44 µM (active)
- EC50 [4]: 0.729 µM (active)
- AC50 [17]: 3.83 µM (active)
- IC50 [18]: 1.68 µM (active)
- IC50 [19]: 1.67 µM (active)
- AC50 (INS1): 1.22 µM (active)
- EC50 [5]: > 180 µM (inactive)
- EC50 [6]: 22.2 µM (active)

Reference: ChEMBL document CHEMBL1201862, “PubChem BioAssay data set” (2004)
